For assay [1], the target named is T1, human GR (Homo sapiens, UniProt P04150).
T1 sequence (P04150 1-777): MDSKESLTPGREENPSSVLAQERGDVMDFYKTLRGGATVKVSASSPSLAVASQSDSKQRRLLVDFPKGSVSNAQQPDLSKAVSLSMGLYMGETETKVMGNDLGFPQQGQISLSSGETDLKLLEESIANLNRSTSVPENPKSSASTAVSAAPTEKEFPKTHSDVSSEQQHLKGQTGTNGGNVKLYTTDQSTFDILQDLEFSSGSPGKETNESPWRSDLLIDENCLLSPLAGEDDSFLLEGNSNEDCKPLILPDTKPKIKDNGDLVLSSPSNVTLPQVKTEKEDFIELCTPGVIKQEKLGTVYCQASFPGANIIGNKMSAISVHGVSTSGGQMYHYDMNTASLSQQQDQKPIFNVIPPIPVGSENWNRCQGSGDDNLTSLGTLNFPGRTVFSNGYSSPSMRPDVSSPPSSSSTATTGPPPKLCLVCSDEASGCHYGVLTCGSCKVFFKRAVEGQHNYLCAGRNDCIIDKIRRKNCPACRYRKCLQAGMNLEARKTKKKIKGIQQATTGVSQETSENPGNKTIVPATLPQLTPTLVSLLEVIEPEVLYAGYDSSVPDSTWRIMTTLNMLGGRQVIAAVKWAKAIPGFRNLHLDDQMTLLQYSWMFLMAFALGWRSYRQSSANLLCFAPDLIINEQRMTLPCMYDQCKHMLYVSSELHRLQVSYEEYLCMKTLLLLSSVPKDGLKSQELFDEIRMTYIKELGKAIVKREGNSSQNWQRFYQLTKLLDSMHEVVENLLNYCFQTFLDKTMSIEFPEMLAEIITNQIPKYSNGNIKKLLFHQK
The experiment in a line: Trans-Activation Modulation of Glucocorticoid Receptor (GRAMMER), MMTV-LUC reporter, agonist mode. Also noted: endogenous in cells. It is filed as cell-based. As to conditions: for Emax: A549, A549 cells, maximum activity, read-out: Transactivation A549 Cells GRAMMER Emax; for EC50: A549 cells, inflection point, read-out: Transactivation A549 Cells GRAMMER IP. A digest of the protocol:
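Readout is luciferase from a modified MMTV LTR promoter after 24 h compound exposure alongside 10 nM dexamethasone (100% activity reference), DMSO ≤1%.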

The target in assay [2] is T1, human GR. As to the kind of experiment: Transrepression Assay (GITAR), TNFα-β-lactamase reporter in U937 cells. It is filed as cell-based. The arrangement: U937 cells contain an endogenous glucocorticoid receptor (GR); endogenous in cells; host or cells: U937 cells stably transfected with the TNF-alpha promoter/beta-lactamase reporter. The settings on record: for GITAR > GRAMM % SEP: GITAR Emax minus GRAMMER Emax; for EC50: U937 cells, inflection point, read-out: Transrepression U937 Cells GITAR IP. A digest of the protocol: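 Stable TNF-α-promoter/β-lactamase U937 line, endogenous GR; 50,000 cells/well. Cmpd 30–45 min 37 °C → PMA 5 ng/ml + LPS 100 ng/ml final, 37 °C ~18 hr → CCF2-AM 70–90 min RT. 100 nM dex = 100%.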

The mark [3] stands for this setting: U-937, U937 cells, maximum activity, read-out: Transrepression U937 Cells GITAR Emax.
[4] abbreviates: U-937, activity repressed by 100 nM dexamethasone alone set as 100%, read-out: maximal activity in the transrepression (GITAR) assay.

Structures are written as SMILES.

For `C[C@]12Cc3cnn(-c4ccc(F)cc4)c3C=C1CC[C@@H]2CN(CC#N)S(=O)(=O)c1ccc(Cl)c(C(F)(F)F)c1` [Example 27, 4-chloro-N-(cyanomethyl)-N-{[(4αR,5S)-1-(4-fluorophenyl)-4α-methyl-1,4,4α,5,6,7-hexahydrocyclopenta[f]indazol-5-yl]methyl}-3-(trifluoromethyl)benzenesulfonamide], the Emax at human GR [1] is 3%; on human GR [2] (setting [3]), 13%; on human GR [2] (setting [4]), > 5%. The values for the EC50 at human GR [1] and at human GR [2] were 0.994 µM and 0.638 µM, respectively. Moreover, the “GITAR > GRAMM % SEP” value on human GR [2] was found to be 10.0%.
As for `C[C@]12Cc3cnn(-c4ccc(F)cc4)c3C=C1CC[C@@H]2CN(CC#N)S(=O)(=O)c1ccc(C#N)cc1` [Example 28, 4-cyano-N-(cyanomethyl)-N-{[(4αR,5S)-1-(4-fluorophenyl)-4α-methyl-1,4,4α,5,6,7-hexahydrocyclopenta[f]indazol-5-yl]methyl}benzenesulfonamide], the Emax on human GR [1] is 44%; at human GR [2] (setting [3]), 78.8%; on human GR [2] (setting [4]), > 5%. Further, the values for the EC50 on human GR [1] and on human GR [2] were 0.483 µM and 0.662 µM, respectively. Besides, the “GITAR > GRAMM % SEP” value on human GR [2] is given as 34.8%.
As for `Cc1cc(S(=O)(=O)N(CC#N)C[C@H]2CCC3=Cc4c(cnn4-c4ccc(F)cc4)C[C@@]32C)c(C)cc1Cl` [Example 29, 4-chloro-N-(cyanomethyl)-N-{[(4αR,5S)-1-(4-fluorophenyl)-4α-methyl-1,4,4α,5,6,7-hexahydrocyclopenta[f]indazol-5-yl]methyl}-2,5-dimethylbenzenesulfonamide], the results for the Emax on human GR [1], at human GR [2] (setting [3]) and at human GR [2] (setting [4]) were 4.7%, 30.9% and > 5%, respectively. Also, the results for the EC50 on human GR [1] and at human GR [2] were 1.71 µM and 0.838 µM, respectively. For the same compound, the “GITAR > GRAMM % SEP” value on human GR [2] is listed as 26.2%.
For the compound `C[C@]12Cc3cnn(-c4ccc(F)cc4)c3C=C1CC[C@@H]2CN(CC#N)S(=O)(=O)Cc1cccc(C(F)(F)F)c1` [Example 30, N-(cyanomethyl)-N-{[(4αR,5S)-1-(4-fluorophenyl}-4α-methyl-1,4,4α,5,6,7-hexahydrocyclopenta[f]indazol-5-yl]methyl}-1-[3-(trifluoromethyl)phenyl]methanesulfonamide], the figures for the Emax at human GR [1], on human GR [2] (setting [3]) and at human GR [2] (setting [4]) were 3.5%, 19.9% and > 5%, respectively. Moreover, the EC50 amounted to 1.64 µM at human GR [1] and 0.417 µM at human GR [2]. Also, the “GITAR > GRAMM % SEP” value at human GR [2] was 16.4%.
Turning to `Cc1ccc(S(=O)(=O)N(CC#N)C[C@H]2CCC3=Cc4c(cnn4-c4ccc(F)cc4)C[C@@]32C)s1` [Example 31, N-(cyanomethyl)-N-{[(4αR,5S)-1-(4-fluorophenyl}-4α-methyl-1,4,4α,5,6,7-hexahydrocyclopenta[f]indazol-5-yl]methyl}-5-methylthiophene-2-sulfonamide], the Emax on human GR [1] is 20.7%; on human GR [2] (setting [3]) it was 54.8%; at human GR [2] (setting [4]), > 5%. In addition, the EC50 was found to be 0.833 µM at human GR [1] and 0.679 µM at human GR [2]. Further, at human GR [2], the “GITAR > GRAMM % SEP” value amounted to 34.0%.
Consider `Cn1cc(S(=O)(=O)N(CC#N)C[C@H]2CCC3=Cc4c(cnn4-c4ccc(F)cc4)C[C@@]32C)c(C(F)(F)F)n1` [Example 32, N-(cyanomethyl)-N-{[(4αR,5S)-1-(4-fluorophenyl}-4α-methyl-1,4,4α,5,6,7-hexahydrocyclopenta[f]indazol-5-yl]methyl}-1-methyl-3-(trifluoromethyl)-1H-pyrazole-4-sulfonamide], for which the Emax on human GR [1] is 29.4%; on human GR [2] (setting [3]) it was 63.1%; on human GR [2] (setting [4]) it was > 5%. For the same compound, the EC50 stood at 0.868 µM at human GR [1] and 0.555 µM on human GR [2]. Further, at human GR [2], the “GITAR > GRAMM % SEP” value is recorded as 33.7%.
Regarding `Cc1cc(S(=O)(=O)N(CC#N)C[C@H]2CCC3=Cc4c(cnn4-c4ccc(F)cc4)C[C@@]32C)c(C)o1` [Example 33, (4αR,5S)-5-({(cyanomethyl)[(2,5-dimethyl-3-furyl)sulfonyl]amino}methyl)-1-(4-fluorophenyl)-4α-methyl-1,4,4α,5,6,7-hexahydrocyclopenta[f]indazol-2-ium], the Emax at human GR [1] is 15.2%; at human GR [2] (setting [3]), 59.7%; on human GR [2] (setting [4]), > 5%. Also, the values for the EC50 at human GR [1] and on human GR [2] were 1.05 µM and 1.2 µM, respectively. For the same compound, at human GR [2], the “GITAR > GRAMM % SEP” value turned out to be 44.5%.
As for `COC(=O)c1sccc1S(=O)(=O)N(CC#N)C[C@H]1CCC2=Cc3c(cnn3-c3ccc(F)cc3)C[C@@]21C` [Example 34, methyl 3-[((cyanomethyl){[(4αR,5S)-1-(4-fluorophenyl)-4α-methyl-1,4,4α,5,6,7-hexahydrocyclopenta[f]indazol-5-yl]methyl}amino)sulfonyl]thiophene-2-carboxylate], the figures for the Emax on human GR [1], at human GR [2] (setting [3]) and on human GR [2] (setting [4]) were 37%, 45.9% and > 5%, respectively. Besides, the EC50 was 0.748 µM at human GR [1] and 1.78 µM at human GR [2]. Besides, the “GITAR > GRAMM % SEP” value at human GR [2] is recorded as 8.9%.
`Cn1nc(C(F)(F)F)cc1-c1ccc(S(=O)(=O)N(CC#N)C[C@H]2CCC3=Cc4c(cnn4-c4ccc(F)cc4)C[C@@]32C)s1` [Example 35]: the Emax was 4.9% at human GR [1], 39.5% at human GR [2] (setting [3]) and > 5% at human GR [2] (setting [4]). Besides, the figures for the EC50 on human GR [1] and at human GR [2] were 0.443 µM and 0.777 µM, respectively. The “GITAR > GRAMM % SEP” value at human GR [2] worked out at 34.6%.
In the case of `C[C@]12Cc3cnn(-c4ccc(F)cc4)c3C=C1CC[C@@H]2CN(CC#N)S(=O)(=O)c1cccc(C#N)c1` [Example 36, 3-cyano-N-(cyanomethyl)-N-{[(4αR,5S)-1-(4-fluorophenyl)-4α-methyl-1,4,4α,5,6,7-hexahydrocyclopenta[f]indazol-5-yl]methyl}benzenesulfonamide], the Emax on human GR [1] is 22.7%; on human GR [2] (setting [3]) it was 72.2%; on human GR [2] (setting [4]), > 5%. For the same compound, the results for the EC50 on human GR [1] and at human GR [2] were 0.745 µM and 0.54 µM, respectively. Besides, at human GR [2], the “GITAR > GRAMM % SEP” value worked out at 49.5%.
Turning to `Cn1cnc(S(=O)(=O)N(CC#N)C[C@H]2CCC3=Cc4c(cnn4-c4ccc(F)cc4)C[C@@]32C)c1` [Example 37, N-(cyanomethyl)-N-{[(4αR,5S)-1-(4-fluorophenyl}-4α-methyl-1,4,4α,5,6,7-hexahydrocyclopenta[f]indazol-5-yl]methyl}-1-methyl-1H-imidazole-4-sulfonamide], the Emax on human GR [1] was 2.8%; at human GR [2] (setting [3]), 33.8%; on human GR [2] (setting [4]), > 5%. Further, the EC50 turned out to be 2.19 µM at human GR [1] and 1.35 µM at human GR [2]. The “GITAR > GRAMM % SEP” value at human GR [2] was 30.9%.
With `C[C@]12Cc3cnn(-c4ccc(F)cc4)c3C=C1CC[C@@H]2CN(CC#N)S(=O)(=O)c1ccc(Oc2cccc(Cl)c2C#N)cc1` [Example 38, 4-(3-chloro-2-cyanophenoxy)-N-(cyanomethyl)-N-{[(4αR,5S)-1-(4-fluorophenyl)-4α-methyl-1,4,4α,5,6,7-hexahydrocyclopenta[f]indazol-5-yl]methyl}benzenesulfonamide], the Emax is 1.3% at human GR [1], 33.8% at human GR [2] (setting [3]) and > 5% at human GR [2] (setting [4]). Moreover, the EC50 on human GR [1] worked out at 5 µM; on human GR [2], 2.34 µM. Also, the “GITAR > GRAMM % SEP” value on human GR [2] came out at 32.5%.
Regarding `CN1CCOc2cc(S(=O)(=O)N(CC#N)C[C@H]3CCC4=Cc5c(cnn5-c5ccc(F)cc5)C[C@@]43C)ccc21` [Example 39, N-(cyanomethyl)-N-{[(4αR,5S)-1-(4-fluorophenyl)-4α-methyl-1,4,4α,5,6,7-hexahydrocyclopenta[f]indazol-5-yl]methyl}-4-methyl-3,4-dihydro-2H-1,4-benzoxazine-7-sulfonamide], the results for the Emax on human GR [1], at human GR [2] (setting [3]) and at human GR [2] (setting [4]) were 1.7%, 17.1% and > 5%, respectively. Further, the EC50 on human GR [1] came to 5 µM; at human GR [2] it was 0.0349 µM. In addition, the “GITAR > GRAMM % SEP” value at human GR [2] is 15.5%.

For the origin of these results see US8299048B2, “Hexahydrocyclopentyl[f]indazole sulfonamides and derivatives thereof as selective glucocorticoid receptor modulators” (Merck Sharp & Dohme Corp., priority 2008, dated 2012).
